This note sets out measurements from ChEMBL document CHEMBL5154686, “Discovery of G2019S-Selective Leucine Rich Repeat Protein Kinase 2 inhibitors with in vivo efficacy” (Eur J Med Chem, 2022).

Usually AUC(0-inf) stands for total exposure, with the tail of the curve extrapolated. A lower AUC(0-inf) goes with less exposure. In general, Cmax refers to the maximum level reached in the sampled fluid or tissue. The term Tmax denotes the time from dosing to the highest level. For orientation: half-life means the time needed for the level to fall by half in the phase considered. A high value points to slow decline. A word on the MRT: it is the average time that molecules of a dose stay in the body. As a reminder, the clearance is the rate of elimination divided by the concentration. In general, Papp A→B refers to how fast a substance crosses the layer from the apical side. A lower Papp A→B goes with slow passage. Broadly, the Papp B→A is how fast a substance crosses the layer from the basolateral side.

Data set [1] is described as follows: AUC infinity in CD-1 mouse plasma at 0.4 mg/kg, iv by LC-MS/MS analysis. Further details: time infinity, dose 0.4 mg/kg, route iv. The format is ADME, organism-based.
A short description of data set [2]: AUC infinity in CD-1 mouse plasma at 2 mg/kg, po by LC-MS/MS analysis. The format is ADME, organism-based. Further details: time infinity, dose 2 mg/kg, route po.
Data set [3] in a line: Cmax in CD-1 mouse plasma at 0.4 mg/kg, iv by LC-MS/MS analysis. The format is ADME, organism-based. More on the design: dose 0.4 mg/kg, route iv.
Data set [4] in a line: Cmax in CD-1 mouse plasma at 2 mg/kg, po by LC-MS/MS analysis. Format: ADME, organism-based. More on the design: dose 2 mg/kg, route po.
Data set [5] can be described thus: Tmax in CD-1 mouse plasma at 2 mg/kg, po by LC-MS/MS analysis. Format: ADME, organism-based.
The nature of data set [6]: Half life in CD-1 mouse plasma at 0.4 mg/kg, iv by LC-MS/MS analysis. The format is ADME, organism-based.
A short description of data set [7]: Half life in CD-1 mouse plasma at 2 mg/kg, po by LC-MS/MS analysis. The format is ADME, organism-based.
The nature of data set [8]: MRT in CD-1 mouse plasma at 0.4 mg/kg, iv by LC-MS/MS analysis. Format: ADME, organism-based.
A short description of data set [9]: MRT in CD-1 mouse plasma at 2 mg/kg, po by LC-MS/MS analysis. Format: ADME, organism-based.
The nature of data set [10]: Clearance in CD-1 mouse plasma at 0.4 mg/kg, iv by LC-MS/MS analysis. The format is ADME, organism-based.
Data set [11] can be described thus: Oral bioavailability in CD-1 mouse plasma at 2 mg/kg by LC-MS/MS analysis. Format: ADME, organism-based.
Data set [12] is described as follows: Ratio of drug level in brain to plasma in CD-1 mouse plasma at 0.4 mg/kg, iv by LC-MS/MS analysis. The format is ADME, organism-based. As to conditions: brain and plasma, read-out: BPR.
Data set [13] is described as follows: Ratio of drug level in brain to plasma in CD-1 mouse plasma at 2 mg/kg, po by LC-MS/MS analysis. The format is ADME, organism-based. As to conditions: brain and plasma, read-out: BPR.
Data set [14] is described as follows: in vitro. As to conditions: human, Caco-2.
Data set [15] in a line: in vitro. As to conditions: human, Caco-2. This is another data set of the same source.
The nature of data set [16]: in vitro. As to conditions: mouse, liver microsomes.
Data set [17] can be described thus: in vitro. As to conditions: human, liver microsomes. A general note: Liver microsomes are vesicles of endoplasmic reticulum, rich in cytochrome P450 enzymes.

Consider `N#Cc1ccc2c(c1)CCC[C@@H]2Nc1ccc2[nH]nc(-c3ccncc3)c2c1`, for which the AUC(0-inf) in data set [1] turned out to be 0.27 µM·h; in [2] it was 1.49 µM·h. Further, the values for the Cmax in data set [3] and in [4] were 340 nM and 470 nM, respectively. Besides, the Tmax in data set [5] is 30 min. Further, the half-life in [6] is 42 min; in data set [7], 90 min; in data set [16] it was 17.7 min; in data set [17] it was 33 min. Besides, the mean residence time MRT in data set [8] amounted to 48 min; in [9], 152 min. The clearance in [10] is 68.4 mL/min. Also, the bioavailability in data set [11] was found to be 112%. The Kp in [12] was 1.8; in data set [13], 0.8. In data set [14], this compound yielded a Papp A→B of 8.9 ×10⁻⁶ cm/s. The compound further displayed a Papp B→A in data set [15] of 7.3 ×10⁻⁶ cm/s.

In turn, `Cc1cc(-c2n[nH]c3ccc(N[C@H]4CCCc5cc(C#N)ccc54)cc23)ccn1` gave a Papp A→B in data set [14] of 13 ×10⁻⁶ cm/s. In [15], this compound gave a Papp B→A of 4.1 ×10⁻⁶ cm/s. Besides, the results for the half-life in [16] and in data set [17] were 15.4 min and 22 min, respectively.

For `N#Cc1ccc2c(c1)CCC[C@H]2Nc1ccc2[nH]nc(-c3ccnc(N4CCOCC4)c3)c2c1`, the AUC(0-inf) in data set [1] came out at 0.4 µM·h; in data set [2], 1.64 µM·h. Moreover, the Cmax in data set [3] is 480 nM; in data set [4] it was 500 nM. Also, in data set [5], the Tmax turned out to be 30 min. Besides, the half-life in data set [6] was 42 min; in data set [7] it was 104 min; in data set [16], 12.7 min; in [17] it was 30 min. For the same compound, the MRT is 51.6 min in data set [8] and 175 min in data set [9]. For the same compound, in data set [10], the clearance stood at 36.6 mL/min. The bioavailability in data set [11] turned out to be 80%. The values for the Kp in [12] and in [13] were 0.3 and 0.1, respectively. Besides, the Papp A→B in data set [14] is 6.2 ×10⁻⁶ cm/s. The Papp B→A in [15] came out at 0.8 ×10⁻⁶ cm/s.

With `N#Cc1ccc2c(c1)OCC[C@H]2Nc1ccc2[nH]nc(-c3ccncc3)c2c1`, the AUC(0-inf) in data set [1] turned out to be 0.14 µM·h; in [2] it was 1.29 µM·h. The Cmax in data set [3] turned out to be 280 nM; in [4], 460 nM. In data set [5], the Tmax came out at 30 min. Besides, the half-life in [6] was 18 min; in data set [7], 88.2 min; in data set [16], 10.3 min; in data set [17], 38 min. In addition, the MRT is 24.6 min in [8] and 145 min in data set [9]. This compound also had a clearance in data set [10] of 94.9 mL/min. In addition, the bioavailability in data set [11] was found to be 147%. For the same compound, the Kp in [12] was 1; in data set [13], 0.5. The compound further registered a Papp A→B in data set [14] of 19 ×10⁻⁶ cm/s. Also, in [15], the Papp B→A was found to be 25 ×10⁻⁶ cm/s.

Take `Cc1cc(-c2n[nH]c3ccc(N[C@@H]4CCCc5cc(C#N)ccc54)cc23)ccn1`: the results for the AUC(0-inf) in [1] and in data set [2] were 0.16 µM·h and 1.06 µM·h, respectively. Also, the Cmax came out at 310 nM in data set [3] and 390 nM in data set [4]. Also, the Tmax in data set [5] was found to be 3000 min. Moreover, the half-life is 24 min in data set [6], 107 min in data set [7], 12.8 min in [16] and 22 min in [17]. The mean residence time (MRT) was found to be 30.6 min in data set [8] and 162 min in [9]. In data set [10], this compound registered a clearance of 65.1 mL/min. For the same compound, the bioavailability in data set [11] was found to be 77%. The Kp was 0.5 in [12] and 0.1 in data set [13]. In addition, the Papp A→B in [14] came to 1.8 ×10⁻⁶ cm/s. Further, the basolateral-to-apical permeability (Papp B→A) in data set [15] came out at 6.8 ×10⁻⁶ cm/s.

`N#Cc1ccc2c(c1)CCC[C@H]2Nc1ccc2[nH]nc(-c3ccncc3)c2c1` returned a Papp A→B in [14] of 8.1 ×10⁻⁶ cm/s. In data set [15], this compound yielded a Papp B→A of 11 ×10⁻⁶ cm/s. The half-life in [16] was 12.4 min; in [17], 26 min.

On to `Cc1cc(-c2n[nH]c3ccc(N[C@H]4CCCc5cc(C#N)ccc54)cc23)cc(C)n1`, for which the Papp A→B in data set [14] was 4.6 ×10⁻⁶ cm/s. In [15], the basolateral-to-apical permeability (Papp B→A) was 4 ×10⁻⁶ cm/s. The half-life in data set [16] worked out at 11.7 min; in data set [17] it was 15 min.
